IC50 data for ten molecules are collected here from US12059425B2, “Heterocyclic compounds and uses thereof” (Kumquat Biosciences Inc., priority 2022, dated 2024).

As usually defined, the IC50 is the concentration needed to halve the response being measured.

SMILES strings stand for the structures.

One experiment deals with T1, K-Ras G12D (Homo sapiens, UniProt P01116, G12D).
T1 construct: made in house; host or cells: E. coli, e.g. BL21 (DE3)
The experiment in a line: PPI-HTRF assay, K-Ras G12D / SOS1 interaction. Type of experiment: biochemical. The following applies: HTRF, K-Ras G12D; read-out: PPI-HTRF-5 nM (K-Ras G12D IC50). In short, it runs like this: (§1)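 Compound in DMSO is dispensed first, then GST-K-Ras plus anti-GST-Eu(K), then His-hSOS1 plus anti-6His-XL665. Plates incubate about 10 min or longer before HTRF measurement at 620 and 665 nm. IC50 values are derived from the emission ratio for each K-Ras variant.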

For a further experiment, the target named is T2, K-Ras G12S (Homo sapiens, UniProt P01116, G12S).
T2 construct: made in house; host or cells: E. coli, e.g. BL21 (DE3)
The experiment in a line: PPI-HTRF assay, K-Ras G12S / SOS1 interaction. In kind it is biochemical. As to conditions: read-out: PPI-HTRF-5 nM (K-Ras G12S IC50). The procedure, abridged:
as §1
On the technique in general: Time-resolved FRET reads energy transfer from a long-lived donor to a nearby acceptor.

A further experiment concerns the target T3, K-Ras G12V (Homo sapiens, UniProt P01116, G12V).
T3 construct: made in house; host or cells: E. coli, e.g. BL21 (DE3)
The experiment is described as follows: PPI-HTRF assay, K-Ras G12V / SOS1 interaction. In kind it is biochemical. As to conditions: HTRF, K-Ras G12V; read-out: PPI-HTRF-5 nM (K-Ras G12V IC50). In short, it runs like this: as §1

A further experiment concerns the target T4, wildtype K-Ras (Homo sapiens, UniProt P01116).
T4 construct: made in house; host or cells: E. coli, e.g. BL21 (DE3)
The experiment is described as follows: PPI-HTRF assay, wildtype K-Ras / SOS1 interaction. In kind it is biochemical. The following applies: HTRF, K-Ras wt; read-out: PPI-HTRF-5 nM (K-Ras wt IC50). The procedure, abridged:
as §1

Another experiment concerns GP2D cells. The experiment is described as follows: Ras cellular assay, cell proliferation GP2D. In kind it is cell-based. The procedure, abridged: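 Growth inhibition read by CellTiter-Glo luminescence roughly 5 days after compound addition, which followed overnight plating of G12D-mutant GP2D cells (e.g., 800 per well). Compounds were tested as a serial dilution (e.g., 9 points, 3-fold), with IC50 fitted by four-parameter model.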

Another experiment has as its system A549 cells. The experiment in a line: Ras cellular assay, cell proliferation A549. The following applies: Homo sapiens. Type of experiment: cell-based. The procedure, abridged:
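G12S-mutant A549 cells (800/well) in RPMI-1640 plus 10% heat-inactivated FBS, standard or ultra-low attachment 384-well plates, dosed the day after plating with a 10-point 3-fold series. Viability by CellTiter-Glo luminescence about 6 days later; IC50 from four-parameter fit.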

For the next experiment, the system named is SW620 cells. The experiment is described as follows: Ras cellular assay, cell proliferation SW620. The following applies: Homo sapiens, SW-620. Type of experiment: cell-based. An excerpt:
For example, this assay can be also used to assess selective growth inhibition of a mutant Ras protein relative to a wildtype, or relative to a different mutant Ras protein.

T2 sequence (P01116 1-188 isoform P01116-2 G12S): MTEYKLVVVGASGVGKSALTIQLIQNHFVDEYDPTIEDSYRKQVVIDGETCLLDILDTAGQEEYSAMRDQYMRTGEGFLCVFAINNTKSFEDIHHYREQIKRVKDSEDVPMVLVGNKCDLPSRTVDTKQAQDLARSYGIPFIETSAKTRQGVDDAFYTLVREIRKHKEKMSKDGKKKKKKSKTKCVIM
T3 sequence (P01116 1-188 isoform P01116-2 G12V): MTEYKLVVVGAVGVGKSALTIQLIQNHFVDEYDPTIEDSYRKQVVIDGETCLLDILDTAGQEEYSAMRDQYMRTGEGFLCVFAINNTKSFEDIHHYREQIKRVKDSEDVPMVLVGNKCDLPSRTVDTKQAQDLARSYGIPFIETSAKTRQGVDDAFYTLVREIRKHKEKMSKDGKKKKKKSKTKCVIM
T4 sequence (P01116 1-188 isoform P01116-2): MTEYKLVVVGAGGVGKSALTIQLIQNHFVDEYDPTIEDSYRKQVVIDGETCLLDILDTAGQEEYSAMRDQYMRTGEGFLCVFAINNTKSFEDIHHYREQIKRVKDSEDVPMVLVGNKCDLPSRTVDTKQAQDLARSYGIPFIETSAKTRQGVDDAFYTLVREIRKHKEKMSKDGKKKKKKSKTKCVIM
T1 sequence (P01116 1-188 isoform P01116-2 G12D): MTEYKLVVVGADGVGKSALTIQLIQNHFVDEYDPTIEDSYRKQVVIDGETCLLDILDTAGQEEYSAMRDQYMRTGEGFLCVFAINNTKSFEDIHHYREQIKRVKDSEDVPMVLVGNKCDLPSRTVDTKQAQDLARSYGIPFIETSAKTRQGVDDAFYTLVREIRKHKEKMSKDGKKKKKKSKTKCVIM

Turning to `N#Cc1c(N)sc2c(F)ccc(-c3c(Cl)c4c5c(nc(OC[C@@]67CCCN6C[C@H](F)C7)nc5c3F)N3CC(F)(F)C[C@@H]3CO4)c12` [compound 176, 2-amino-4-((8aR)-6-chloro-4,10,10-trifluoro-2-(((2R,7aS)-2-fluorotetrahydro-1H-pyrrolizin-7a(5H)-yl)methoxy)-8a,9,10,11-tetrahydro-8H-pyrrolo[2′,1′:3,4][1,4]oxazepino[5,6,7-de]quinazolin-5-yl)-7-fluorobenzo[b]thiophene-3-carbonitrile], the IC50 on K-Ras G12D, at K-Ras G12S, on K-Ras G12V, on wildtype K-Ras, with GP2D cells and in the experiment on A549 cells was less than 5 µM throughout. In the experiment on SW620 cells, this molecule gave an IC50 of less than 5 µM.
Consider `N#Cc1c(N)sc2c(F)ccc(-c3c(Cl)c4c5c(nc(OC[C@@]67CCCN6C[C@H](F)C7)nc5c3F)N3CCCC(O)C3CO4)c12` (stereo partly drawn) [compound 157, 2-amino-4-(6-chloro-4-fluoro-2-(((2R,7aS)-2-fluorotetrahydro-1H-pyrrolizin-7a(5H)-yl)methoxy)-9-hydroxy-8,8a,9,10,11,12-hexahydropyrido[2′,1′:3,4][1,4]oxazepino [5,6,7-de]quinazolin-5-yl)-7-fluorobenzo[b]thiophene-3-carbonitrile], for which the IC50 on K-Ras G12D, on K-Ras G12S, at K-Ras G12V, at wildtype K-Ras, in the experiment with GP2D cells and with A549 cells was less than 5 µM in each case. The same molecule gave a half-inhibitory concentration (IC50) in the experiment on SW620 cells of less than 5 µM.
With `N#Cc1c(N)sc2c(F)ccc(-c3c(Cl)c4c5c(nc(OC[C@@]67CCCN6C[C@H](F)C7)nc5c3F)N3C(CCC3COC(F)F)CO4)c12` (stereo partly drawn) [compound 161, 2-amino-4-(6-chloro-11-((difluoromethoxy)methyl)-4-fluoro-2-(((2R,7aS)-2-fluorotetrahydro-1H-pyrrolizin-7a(5H)-yl)methoxy)-8a,9,10,11-tetrahydro-8H-pyrrolo[2′,1′:3,4][1,4]oxazepino[5,6,7-de]quinazolin-5-yl)-7-fluorobenzo[b]thiophene-3-carbonitrile], the IC50 on K-Ras G12D, at K-Ras G12S, on K-Ras G12V, at wildtype K-Ras, in the experiment on GP2D cells and in the experiment with A549 cells was less than 5 µM in each case. The molecule further yielded an IC50 in the experiment on SW620 cells of less than 5 µM.
Turning to `N#Cc1c(N)sc2c(F)ccc(-c3c(Cl)c4c5c(nc(OC[C@@]67CCCN6C[C@H](F)C7)nc5c3F)N3CC[C@H]3CCO4)c12` [compound 207, 2-amino-4-((12aS)-9-chloro-7-fluoro-5-(((2R,7aS)-2-fluorotetrahydro-1H-pyrrolizin-7a(5H)-yl)methoxy)-1,11,12,12a-tetrahydro-2H-azeto[11,2′:5,6][1,5]oxazocino[4,3,2-de]quinazolin-8-yl)-7-fluorobenzo[b]thiophene-3-carbonitrile], the IC50 on K-Ras G12D, at K-Ras G12S, at K-Ras G12V, at wildtype K-Ras, in the experiment on GP2D cells and with A549 cells was less than 5 µM each time. Further, in the experiment on SW620 cells, the IC50 was less than 5 µM.
As for `CN1c2nc(OC[C@@]34CCCN3C[C@H](F)C4)nc3c(F)c(-c4ccc(F)c5sc(N)c(C#N)c45)c(Cl)c(c23)OC2CN(C=O)CC21` (stereo partly drawn) [compound 126, 2-amino-4-(6-chloro-4-fluoro-2-(((2R,7aS)-2-fluorotetrahydro-1H-pyrrolizin-7a(5H)-yl)methoxy)-9-formyl-11-methyl-7a,8,9,10,10a,11-hexahydropyrrolo[3′,4′:2,3][1,4]oxazepino[5,6,7-de]quinazolin-5-yl)-7-fluorobenzo[b]thiophene-3-carbonitrile], the IC50 on K-Ras G12D, on K-Ras G12S, at K-Ras G12V, at wildtype K-Ras, in the experiment on GP2D cells and with A549 cells was less than 5 µM throughout. The IC50 in the experiment with SW620 cells was less than 5 µM.
Regarding `N#Cc1c(N)sc2c(F)ccc(-c3c(Cl)c4c5c(nc(OCC67CCCN6C[C@H](F)C7)nc5c3F)N3CCC(O)CC3CO4)c12` (stereo partly drawn) [compound 132, 2-amino-4-(3-chloro-1-fluoro-12-(((2R,7aS)-2-fluorotetrahydro-1H-pyrrolizin-7a(5H)-yl)methoxy)-7-hydroxy-5,5a,6,7,8,9-hexahydropyrido[2′,1′:3,4][1,4]oxazepino[5,6,7-de]quinazolin-2-yl)-7-fluorobenzo[b]thiophene-3-carbonitrile], the IC50 at K-Ras G12D, on K-Ras G12S, on K-Ras G12V, at wildtype K-Ras, in the experiment with GP2D cells and with A549 cells was less than 5 µM each time. Also, in the experiment on SW620 cells, the IC50 was less than 5 µM.
For the molecule `CN1c2nc(OC[C@@]34CCCN3C[C@H](F)C4)nc3c(F)c(-c4ccc(F)c5sc(N)c(C#N)c45)c(Cl)c(c23)OCC2CNCC21` (stereo partly drawn) [compound 140, 2-amino-4-(6-chloro-4-fluoro-2-(((2R,7aS)-2-fluorotetrahydro-1H-pyrrolizin-7a(5H)-yl)methoxy)-12-methyl-8a,9,10,11,11a,12-hexahydro-8H-pyrrolo[3′,4′:6,7][1,5]oxazocino[4,3,2-de]quinazolin-5-yl)-7-fluorobenzo[b]thiophene-3-carbonitrile], the IC50 on K-Ras G12D, at K-Ras G12S, on K-Ras G12V, on wildtype K-Ras, with GP2D cells and in the experiment on A549 cells was less than 5 µM throughout. The IC50 in the experiment with SW620 cells is less than 5 µM.
In the case of `N#Cc1c(N)sc2c(F)ccc(-c3c(Cl)c4c5c(nc(OC[C@@]67CCCN6C[C@H](F)C7)nc5c3F)N3CC5(CCCC3CCO4)CN(C(=O)C3CC3(F)F)C5)c12` (stereo partly drawn) [compound 127, 2-amino-4-(3-chloro-1′-(2,2-difluorocyclopropane-1-carbonyl)-1-fluoro-14-(((2R,7aS)-2-fluorotetrahydro-1H-pyrrolizin-7a(5H)-yl)methoxy)-5,6,6a,7,8,9-hexahydro-11H-spiro[azepino[1′,2′:5,6][1,5]oxazocino[4,3,2-de]quinazoline-10,3′-azetidin]-2-yl)-7-fluorobenzo[b]thiophene-3-carbonitrile], the IC50 at K-Ras G12D is less than 5 µM; on K-Ras G12S, less than 5 µM; on K-Ras G12V, less than 5 µM; on wildtype K-Ras it was less than 5 µM; in the experiment on GP2D cells, less than 5 µM; with A549 cells it was more than 5 µM. Besides, the IC50 with SW620 cells was less than 5 µM.
Take `N#Cc1c(N)sc2c(F)ccc(-c3c(Cl)c4c5c(nc(OC[C@@]67CCCN6C[C@H](F)C7)nc5c3F)N3CCN(C=O)CCC3CO4)c12` (stereo partly drawn) [compound 152, 2-amino-4-(12-chloro-10-fluoro-8-(((2R,7aS)-2-fluorotetrahydro-1H-pyrrolizin-7a(5H)-yl)methoxy)-3-formyl-2,3,4,5,14,14a-hexahydro-1H-[1,4]diazepino[7′,1′:3,4][1,4]oxazepino[5,6,7-de]quinazolin-11-yl)-7-fluorobenzo[b]thiophene-3-carbonitrile]: the IC50 at K-Ras G12D, on K-Ras G12S, on K-Ras G12V, on wildtype K-Ras, in the experiment with GP2D cells and in the experiment on A549 cells was less than 5 µM in each case. This molecule also displayed an IC50 in the experiment with SW620 cells of less than 5 µM.
For `N#Cc1c(N)sc2c(F)ccc(-c3c(Cl)c4c5c(nc(OC[C@@]67CCCN6C[C@H](F)C7)nc5c3F)N(CCC3CNC3)C3COCC3CO4)c12` (stereo partly drawn) [compound 171, 2-amino-4-(12-(2-(azetidin-3-yl)ethyl)-6-chloro-4-fluoro-2-(((2R,7aS)-2-fluorotetrahydro-1H-pyrrolizin-7a(5H)-yl)methoxy)-8a,9,11a,12-tetrahydro-8H,11H-furo[3′,4′:6,7][1,5]oxazocino[4,3,2-de]quinazolin-5-yl)-7-fluorobenzo[b]thiophene-3-carbonitrile], the IC50 was less than 5 µM at K-Ras G12D; less than 5 µM on K-Ras G12S; less than 5 µM on K-Ras G12V; less than 5 µM on wildtype K-Ras; less than 5 µM in the experiment on GP2D cells; more than 5 µM with A549 cells. This molecule also gave an IC50 in the experiment with SW620 cells of more than 5 µM.
